Experimental data: patent US12115373B2, “Methods for reducing the risk of strokes by pharmacotherapy to reduce the number and duration of atrial fibrillations” (Xyra, LLC, priority 2022, dated 2024)

Legend:
[1] = system: patients with either paroxysmal or persistent AFib; assay: Clinical trial: episodes of long duration AFib (>1 hr), pacemaker monitoring (Example 5); assay type: in vivo; conditions: 2 week period; for Episodes of AFib > 1 hrs: Duration / Episodes of AFib > 1 hrs: Number: 6 patients
Description: This example is a clinical trial evaluation of budiodarone in treating 6 patients with either paroxysmal or persistent AFib who previously evidenced episodes of long duration AFib (greater than 1 hour). In this example, the patients' heart rhythms were continuously monitored over a twelve-week period with a pacemaker (surgically invasive procedure) and were treated with different doses (2 weeks each) of budiodarone. In addition, during this trial, the patients were under continuous monitoring and constant clinician supervision.
The purpose of this example is to establish whether budiodarone reduces long duration AFib (duration >1 hr) in a clinical study setting using a pacemaker to evaluate the heart rhythm.
As above, “Number” indicates a number of long duration AFib episodes during the 2 week period, and “Duration” indicates a number of hours during the 2 week period sent in the long duration AFib episodes

[2] = system: patients with either paroxysmal or persistent AFib; assay: Clinical trial: episodes of longer duration AFib (>24 hrs), pacemaker monitoring (Example 3); assay type: in vivo; conditions: 2-week period; for Episodes of AFib > 24 hrs: Duration / Episodes of AFib > 24 hrs: Number: 6 patients
Description: This example is a clinical trial evaluation of budiodarone in treating 6 patients with either paroxysmal or persistent AFib who previously evidenced episodes of long duration AFib (greater than 24 hrs). In this example, the patients' heart rhythms were continuously monitored over a twelve-week period with a pacemaker (surgically invasive procedure) and were treated with different doses (2 weeks each) of budiodarone. In addition, during this trial, the patients were under continuous monitoring and constant clinician supervision.
The purpose of this example is to establish whether budiodarone treatment can reduce longer duration AFib (AFib episodes lasting more than 24 hours) in a clinical study setting and using a pacemaker to evaluate heart rhythm.
“Number” indicates the number of longer duration episodes of AFib (i.e., having a duration of greater than 24 hours). “Duration” indicates the amount of time during the 2-week period spent in the longer duration indicated in hours and a percentage relative to the baseline measurement. As per the above results, 200 mg b.i.d. was sufficient to treat all patients in the study by eliminating the number of episodes of AFib lasting over 24 hours. In this case, dose escalation was not required to improve patient efficacy as the 200 mg bid doses of budiodarone were sufficient to eliminate these long duration episodes of AFib.

[3] = Serum half-life of budiodarone; assay type: in vivo; conditions: human
[4] = system: patients; assay: Clinical trial: longest duration episode of AFib at each dose, per subject (Example 7); assay type: in vivo; conditions: for longest duration episode of AFib / longest duration episode of AFib, Total: 2 Weeks; for longest duration episode of AFib, Total: Total of subjects
Description: This example is a clinical trial evaluation of 6 patients treated with different doses of budiodarone each for a two-week period to determine the longest duration episode of AFib experienced at each dose. In this example, the patients' heart rhythms were continuously monitored over a twelve-week period with a pacemaker.

[5] = in vivo; cited from earlier work
[6] = system: patients with either paroxysmal or persistent AFib; assay: Clinical trial: episodes of AFib greater than 6 minutes (0.1 hour), pacemaker monitoring (Example 6); assay type: in vivo; conditions: for Episodes of AFib > 0.1 hrs: Duration, percent of Off Drug (baseline) / Episodes of AFib > 0.1 hrs: Number, percent of Off Drug (baseline): 2 weeks (baseline 4 weeks); for Episodes of AFib > 0.1 hrs: Number / Episodes of AFib > 0.1 hrs: Duration: all tested patients, 2 weeks; for Episodes of AFib > 0.1 hrs: Duration: cumulative; for Episodes of AFib > 0.1 hrs: Fraction of hours: hours in AFib / hours monitored
Description: In this example, the patients' heart rhythm was continuously monitored over a twelve-week period with a pacemaker. The patients were treated with different doses (2 weeks each) of budiodarone. In addition, during this trial, the patients were under continuous monitoring and clinician supervision.
The “Number” indicates the number of AFib episodes greater than 6 minutes for all tested patients over the trial period (4 weeks for based line, 2 weeks experimental). The “Duration” in hours indicates the cumulative duration in hours over the trial period that the tested patients were measured in episodes of AFib greater than 6 minutes.
Table 8 provides a summary of the fraction of time and the number of hours per week that the patients were in episodes of AFib greater than 6 minutes in duration, on average. The percent time in AFib was reduced by 90% for doses of budiodarone at 600 mg bid and 800 mg bid.

## CC[C@H](C)OC(=O)Cc1oc2ccccc2c1C(=O)c1cc(I)c(OCCN(CC)CC)c(I)c1 [budiodarone, (S)-sec-butyl2-(3-(4-(2-(diethylamino)ethoxy)-3,5-diiodobenzoyl)benzofuran-2-yl)acetate]
[1]; 200 mg bid
  Episodes of AFib > 1 hrs: Duration, percent of Off Drug (baseline): (10%)
  Episodes of AFib > 1 hrs: Duration: 60 h
  Episodes of AFib > 1 hrs: Number: 22
[1]; 400 mg bid
  Episodes of AFib > 1 hrs: Duration, percent of Off Drug (baseline): (9.3%)
  Episodes of AFib > 1 hrs: Duration: 56 h
  Episodes of AFib > 1 hrs: Number: 12
[1]; 600 mg bid
  Episodes of AFib > 1 hrs: Duration, percent of Off Drug (baseline): (4.3%)
  Episodes of AFib > 1 hrs: Duration: 26 h
  Episodes of AFib > 1 hrs: Number: 6
[1]; 800 mg bid
  Episodes of AFib > 1 hrs: Duration, percent of Off Drug (baseline): (2.5%)
  Episodes of AFib > 1 hrs: Duration: 15 h
  Episodes of AFib > 1 hrs: Number: 6
[2]; 200 mg bid
  Episodes of AFib > 24 hrs: Duration, percentage relative to the baseline: (0%)
  Episodes of AFib > 24 hrs: Duration: 0 h
  Episodes of AFib > 24 hrs: Number: 0
[2]; 400 mg bid
  Episodes of AFib > 24 hrs: Duration, percentage relative to the baseline: (0%)
  Episodes of AFib > 24 hrs: Duration: 0 h
  Episodes of AFib > 24 hrs: Number: 0
[2]; 600 mg bid
  Episodes of AFib > 24 hrs: Duration, percentage relative to the baseline: (0%)
  Episodes of AFib > 24 hrs: Duration: 0 h
  Episodes of AFib > 24 hrs: Number: 0
[2]; 800 mg bid
  Episodes of AFib > 24 hrs: Duration, percentage relative to the baseline: (0%)
  Episodes of AFib > 24 hrs: Duration: 0 h
  Episodes of AFib > 24 hrs: Number: 0
[3]; after administration
  half-life: 6 to 7 h
[3]; read-out: steady state (about 5x the serum half-life)
  time to reach steady state: 1800 to 2100 min
[4]; Subject 1
  dose required to eliminate all episodes of long duration AFib (>5 hrs): 800 mg bid
[4]; Subject 1, 200 mg bid
  longest duration episode of AFib: 5 h
[4]; Subject 1, 400 mg bid
  longest duration episode of AFib: 8 h
[4]; Subject 1, 600 mg bid
  longest duration episode of AFib: 7 h
[4]; Subject 1, 800 mg bid
  longest duration episode of AFib: 3 h
[4]; Subject 2, 200 mg bid
  longest duration episode of AFib: 6 h
[4]; Subject 2, 400 mg bid
  longest duration episode of AFib: 13 h
[4]; Subject 2, 600 mg bid
  longest duration episode of AFib: 0 h
[4]; Subject 2, 800 mg bid
  longest duration episode of AFib: 5 h
[4]; Subject 3, 200 mg bid
  longest duration episode of AFib: 7 h
[4]; Subject 4, 200 mg bid
  longest duration episode of AFib: 0 h
[4]; Subject 4, 400 mg bid
  longest duration episode of AFib: 2 h
[4]; Subject 4, 600 mg bid
  longest duration episode of AFib: 2 h
[4]; Subject 4, 800 mg bid
  longest duration episode of AFib: 1 h
[4]; Subject 5, 200 mg bid
  longest duration episode of AFib: 3 h
[4]; Subject 5, 400 mg bid
  longest duration episode of AFib: 2 h
[4]; Subject 5, 600 mg bid
  longest duration episode of AFib: 0.8 h
[4]; Subject 5, 800 mg bid
  longest duration episode of AFib: 1.6 h
[4]; Subject 6
  dose required to eliminate all episodes: 600 mg bid
[4]; Subject 6, 200 mg bid
  longest duration episode of AFib: 6 h
[4]; Subject 6, 400 mg bid
  longest duration episode of AFib: 10 h
[4]; Subject 6, 600 mg bid
  longest duration episode of AFib: 0 h
[4]; Subject 6, 800 mg bid
  longest duration episode of AFib: 3 h
[4]; Subjects 4 and 5
  dose sufficient to eliminate all episodes of long duration AFib (>5 hrs): 200 mg twice a day
[4]; 200 mg bid
  longest duration episode of AFib, Total: 21 h
[4]; 400 mg bid
  longest duration episode of AFib, Total: 33 h
[4]; 600 mg bid
  longest duration episode of AFib, Total: 7.8 h
[4]; 800 mg bid
  longest duration episode of AFib, Total: 13.6 h
[5]
  increase in the QT interval: without a significant increase in the QT interval
[6]; 200 mg bid
  Episodes of AFib > 0.1 hrs: Duration in hrs/week (average per patient): 5.9 hrs/week
  Episodes of AFib > 0.1 hrs: Fraction of hours (percent), percent time in AFib: (3.5%)
  Episodes of AFib > 0.1 hrs: Duration, percent of Off Drug (baseline): 11%
  Episodes of AFib > 0.1 hrs: Number, percent of Off Drug (baseline): 52 (52%)
  Episodes of AFib > 0.1 hrs: Number: 52 (52%)
  Episodes of AFib > 0.1 hrs: Duration: 71 h
  Episodes of AFib > 0.1 hrs: Fraction of hours: 71/2016
[6]; 200 mg twice a day
  drop in percent time in AFib: 76.7%
[6]; 400 mg bid
  Episodes of AFib > 0.1 hrs: Duration in hrs/week (average per patient): 5 hrs/week
  Episodes of AFib > 0.1 hrs: Fraction of hours (percent), percent time in AFib: (3.0%)
  Episodes of AFib > 0.1 hrs: Duration, percent of Off Drug (baseline): 10%
  Episodes of AFib > 0.1 hrs: Number, percent of Off Drug (baseline): 28 (28%)
  Episodes of AFib > 0.1 hrs: Number: 28 (28%)
  Episodes of AFib > 0.1 hrs: Duration: 61 h
  Episodes of AFib > 0.1 hrs: Fraction of hours: 61/2016
[6]; 600 mg bid
  Episodes of AFib > 0.1 hrs: Duration in hrs/week (average per patient): 2.5 hrs/week
  Episodes of AFib > 0.1 hrs: Fraction of hours (percent), percent time in AFib: (1.5%)
  Episodes of AFib > 0.1 hrs: Duration, percent of Off Drug (baseline): 4.8%
  Episodes of AFib > 0.1 hrs: Number, percent of Off Drug (baseline): 16 (16%)
  Episodes of AFib > 0.1 hrs: Number: 16 (16%)
  Episodes of AFib > 0.1 hrs: Duration: 30 h
  Episodes of AFib > 0.1 hrs: Fraction of hours: 30/2016
[6]; 600 mg bid and 800 mg bid (Table 8)
  reduction of percent time in AFib: 90%
[6]; 600 mg bid or 800 mg bid
  reduction of the number of episodes of AFib longer than 6 minutes: more than 80%
[6]; 600 mg twice a day
  drop in percent time in AFib: 90%
[6]; 800 mg bid
  Episodes of AFib > 0.1 hrs: Duration in hrs/week (average per patient): 1.3 hrs/week
  Episodes of AFib > 0.1 hrs: Fraction of hours (percent), percent time in AFib: (0.8%)
  Episodes of AFib > 0.1 hrs: Duration, percent of Off Drug (baseline): 2.5%
  Episodes of AFib > 0.1 hrs: Number, percent of Off Drug (baseline): 15 (15%)
  Episodes of AFib > 0.1 hrs: Number: 15 (15%)
  Episodes of AFib > 0.1 hrs: Duration: 16 h
  Episodes of AFib > 0.1 hrs: Fraction of hours: 16/2016
[6]; 800 mg twice a day
  drop in percent time in AFib: 94.8%
